Experimental data from the Kinase Knowledgebase extract (Sharma et al. 2016).

How the values were obtained:
[1] = target: PIK3CG (human) (UniProt P48736); test: Assessment of PI3KCG Kinase Activity
[2] = target: PIK3CD (Human) (UniProt O00329); test: Assessment of PI3KCD Kinase Activity
[3] = target: PIK3CA (human) (UniProt P42336); test: Assessment of PI3KCA Kinase Activity
[4] = target: PIK3CB (Human) (UniProt P42338); test: Assessment of PI3KCB Kinase Activity
Chain of PIK3CB (Human) (P42338 whole entry, looked up): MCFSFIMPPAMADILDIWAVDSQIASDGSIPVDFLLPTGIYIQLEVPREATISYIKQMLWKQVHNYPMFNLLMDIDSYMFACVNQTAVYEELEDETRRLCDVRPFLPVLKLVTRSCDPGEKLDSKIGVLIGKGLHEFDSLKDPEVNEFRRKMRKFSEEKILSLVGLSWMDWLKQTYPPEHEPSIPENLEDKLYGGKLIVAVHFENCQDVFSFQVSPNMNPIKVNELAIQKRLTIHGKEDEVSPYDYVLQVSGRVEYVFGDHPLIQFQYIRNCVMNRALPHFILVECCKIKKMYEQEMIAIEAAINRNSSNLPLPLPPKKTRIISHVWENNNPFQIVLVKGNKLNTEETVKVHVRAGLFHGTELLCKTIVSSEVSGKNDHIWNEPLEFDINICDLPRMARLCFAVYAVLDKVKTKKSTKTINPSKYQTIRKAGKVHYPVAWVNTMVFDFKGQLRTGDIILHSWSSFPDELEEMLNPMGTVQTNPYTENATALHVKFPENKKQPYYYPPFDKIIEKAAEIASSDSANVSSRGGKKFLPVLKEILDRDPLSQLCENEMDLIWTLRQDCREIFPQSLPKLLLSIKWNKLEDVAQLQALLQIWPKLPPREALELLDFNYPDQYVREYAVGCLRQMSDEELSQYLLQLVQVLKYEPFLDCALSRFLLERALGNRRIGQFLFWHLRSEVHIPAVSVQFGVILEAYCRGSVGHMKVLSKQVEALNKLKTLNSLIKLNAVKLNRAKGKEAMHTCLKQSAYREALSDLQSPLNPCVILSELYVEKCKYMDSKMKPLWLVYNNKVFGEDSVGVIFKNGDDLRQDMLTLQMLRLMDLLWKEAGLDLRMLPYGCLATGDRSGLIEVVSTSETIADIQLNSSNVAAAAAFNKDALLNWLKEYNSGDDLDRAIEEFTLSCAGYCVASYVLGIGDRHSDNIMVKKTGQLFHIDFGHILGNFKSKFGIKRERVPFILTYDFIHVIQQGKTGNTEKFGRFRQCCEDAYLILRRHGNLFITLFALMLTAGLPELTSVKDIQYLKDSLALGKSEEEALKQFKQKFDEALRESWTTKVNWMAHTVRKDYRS

Chain of PIK3CG (human) (P48736 whole entry, looked up): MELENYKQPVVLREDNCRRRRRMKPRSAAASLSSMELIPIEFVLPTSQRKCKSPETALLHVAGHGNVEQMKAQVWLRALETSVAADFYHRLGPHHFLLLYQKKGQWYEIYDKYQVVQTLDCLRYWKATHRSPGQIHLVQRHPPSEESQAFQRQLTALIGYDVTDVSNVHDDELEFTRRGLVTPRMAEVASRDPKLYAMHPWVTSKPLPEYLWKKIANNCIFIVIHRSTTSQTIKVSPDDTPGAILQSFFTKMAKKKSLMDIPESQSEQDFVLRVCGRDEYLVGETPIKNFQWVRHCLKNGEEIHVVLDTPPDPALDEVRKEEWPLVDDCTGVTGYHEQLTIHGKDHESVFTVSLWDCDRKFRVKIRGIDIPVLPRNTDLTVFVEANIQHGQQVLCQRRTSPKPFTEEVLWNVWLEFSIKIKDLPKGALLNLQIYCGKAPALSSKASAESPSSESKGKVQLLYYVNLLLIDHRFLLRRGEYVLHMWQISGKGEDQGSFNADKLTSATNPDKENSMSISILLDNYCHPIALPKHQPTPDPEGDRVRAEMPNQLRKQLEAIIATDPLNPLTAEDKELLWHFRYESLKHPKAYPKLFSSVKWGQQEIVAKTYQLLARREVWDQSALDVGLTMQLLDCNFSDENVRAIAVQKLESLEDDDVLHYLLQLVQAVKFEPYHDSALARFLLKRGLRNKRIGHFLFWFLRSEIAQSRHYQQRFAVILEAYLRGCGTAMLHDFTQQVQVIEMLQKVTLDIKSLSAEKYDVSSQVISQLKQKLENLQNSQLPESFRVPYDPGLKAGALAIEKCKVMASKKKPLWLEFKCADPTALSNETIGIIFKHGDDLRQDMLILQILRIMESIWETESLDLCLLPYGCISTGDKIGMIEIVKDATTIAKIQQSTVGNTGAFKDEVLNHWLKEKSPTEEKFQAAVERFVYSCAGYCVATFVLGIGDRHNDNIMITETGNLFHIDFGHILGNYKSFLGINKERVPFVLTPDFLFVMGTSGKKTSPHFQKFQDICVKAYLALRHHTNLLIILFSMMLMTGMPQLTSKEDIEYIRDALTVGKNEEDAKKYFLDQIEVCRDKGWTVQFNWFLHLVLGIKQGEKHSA
Chain of PIK3CD (Human) (O00329 whole entry, looked up): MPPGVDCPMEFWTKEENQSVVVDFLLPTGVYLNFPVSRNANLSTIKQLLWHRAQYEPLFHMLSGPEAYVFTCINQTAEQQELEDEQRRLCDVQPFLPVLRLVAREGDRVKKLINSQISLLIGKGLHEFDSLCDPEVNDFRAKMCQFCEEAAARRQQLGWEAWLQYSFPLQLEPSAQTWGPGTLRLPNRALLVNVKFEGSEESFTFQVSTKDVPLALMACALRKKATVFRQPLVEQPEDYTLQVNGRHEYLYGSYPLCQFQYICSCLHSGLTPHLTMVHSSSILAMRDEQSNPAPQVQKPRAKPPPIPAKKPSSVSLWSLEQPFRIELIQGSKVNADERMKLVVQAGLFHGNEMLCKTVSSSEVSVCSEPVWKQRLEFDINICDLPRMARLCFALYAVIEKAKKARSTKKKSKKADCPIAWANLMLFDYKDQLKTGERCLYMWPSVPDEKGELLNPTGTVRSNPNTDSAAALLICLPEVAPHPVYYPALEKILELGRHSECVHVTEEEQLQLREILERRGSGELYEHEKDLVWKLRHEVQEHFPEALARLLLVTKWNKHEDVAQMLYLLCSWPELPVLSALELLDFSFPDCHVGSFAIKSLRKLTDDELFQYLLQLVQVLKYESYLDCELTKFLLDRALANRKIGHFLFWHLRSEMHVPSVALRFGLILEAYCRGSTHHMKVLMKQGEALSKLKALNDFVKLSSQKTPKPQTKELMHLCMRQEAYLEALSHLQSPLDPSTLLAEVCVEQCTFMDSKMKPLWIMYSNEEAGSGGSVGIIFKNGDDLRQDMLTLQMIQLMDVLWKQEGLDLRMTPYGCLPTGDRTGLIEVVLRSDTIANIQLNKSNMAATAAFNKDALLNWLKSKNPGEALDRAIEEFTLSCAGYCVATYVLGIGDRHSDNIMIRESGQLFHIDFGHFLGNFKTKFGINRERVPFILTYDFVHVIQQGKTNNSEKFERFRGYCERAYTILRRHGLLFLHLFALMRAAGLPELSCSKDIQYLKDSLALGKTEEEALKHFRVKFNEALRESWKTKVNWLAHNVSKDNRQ
Chain of PIK3CA (human) (P42336 whole entry, looked up): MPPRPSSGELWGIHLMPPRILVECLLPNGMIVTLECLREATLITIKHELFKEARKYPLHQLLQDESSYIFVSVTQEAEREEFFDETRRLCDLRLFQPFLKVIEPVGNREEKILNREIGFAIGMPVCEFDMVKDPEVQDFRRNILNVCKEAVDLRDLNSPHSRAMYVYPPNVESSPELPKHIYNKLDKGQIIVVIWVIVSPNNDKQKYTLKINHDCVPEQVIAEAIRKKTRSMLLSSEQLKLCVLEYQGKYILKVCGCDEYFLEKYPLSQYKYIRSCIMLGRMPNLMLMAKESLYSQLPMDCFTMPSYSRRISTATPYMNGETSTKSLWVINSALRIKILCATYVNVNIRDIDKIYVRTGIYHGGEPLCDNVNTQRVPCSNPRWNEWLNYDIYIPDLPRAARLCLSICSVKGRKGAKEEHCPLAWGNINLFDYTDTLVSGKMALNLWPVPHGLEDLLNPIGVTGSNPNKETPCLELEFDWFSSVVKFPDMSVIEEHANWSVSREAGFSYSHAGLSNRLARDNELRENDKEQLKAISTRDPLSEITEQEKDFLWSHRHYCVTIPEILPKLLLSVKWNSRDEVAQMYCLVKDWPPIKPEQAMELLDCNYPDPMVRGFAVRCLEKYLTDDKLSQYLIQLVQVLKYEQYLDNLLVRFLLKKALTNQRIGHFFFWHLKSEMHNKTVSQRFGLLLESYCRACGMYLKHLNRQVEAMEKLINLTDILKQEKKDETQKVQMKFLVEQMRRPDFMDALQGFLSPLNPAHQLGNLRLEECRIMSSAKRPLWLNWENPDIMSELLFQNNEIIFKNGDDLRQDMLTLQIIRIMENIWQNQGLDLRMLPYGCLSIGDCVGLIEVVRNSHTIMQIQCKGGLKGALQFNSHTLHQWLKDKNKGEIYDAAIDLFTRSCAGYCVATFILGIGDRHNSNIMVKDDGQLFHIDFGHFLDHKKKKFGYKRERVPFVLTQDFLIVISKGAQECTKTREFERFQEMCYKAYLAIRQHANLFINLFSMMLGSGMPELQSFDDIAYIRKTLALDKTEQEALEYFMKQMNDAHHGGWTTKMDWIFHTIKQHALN

Row | SMILES | IC50 [1] [nM] | IC50 [2] [nM] | IC50 [3] [nM] | IC50 [4] [nM]
1 | CNC(=O)Nc1nc2ccc(-c3nn(Cc4cc5cccc(C)c5c(=O)n4-c4ccccc4C)c4ncnc(N)c34)cc2s1 | < 100 | < 100 | < 100 | –
2 | Cc1cccc2cc(Cn3nc(-c4cc(O)cc(F)c4)c4c(N)ncnc43)n(C3CC3)c(=O)c12 | < 100 | < 100 | – | < 100
3 | COc1ccccc1-n1c(Cn2nc(-c3cc(O)cc(F)c3)c3c(N)ncnc32)nc2scc(C)c2c1=O | < 100 | < 100 | – | –
4 | Cc1ccccc1-n1c(Cn2nc(I)c3c(N)ncnc32)cc2cccc(C)c2c1=O | < 100 | < 100 | – | –
5 | Cc1ccccc1-n1c(Cn2nc(-c3cccc(O)c3)c3c(N)ncnc32)cc2nccc(C)c2c1=O | < 100 | < 100 | – | –
6 | Cc1cccc2cc(Cn3nc(-c4cccc(O)c4)c4c(N)ncnc43)n(-c3ccccc3Cl)c(=O)c12 | < 100 | < 100 | – | –
7 | Cc1cccnc1-n1c(Cn2nc(-c3cc(O)cc(F)c3)c3c(N)ncnc32)cc2cccc(C)c2c1=O | < 100 | < 100 | – | –
8 | Cc1ccccc1-n1c(Cn2nc(-c3cnc4[nH]ccc4c3)c3c(N)ncnc32)cc2cccc(C)c2c1=O | < 100 | < 100 | – | –
9 | COc1ccccc1-n1c(Cn2nc(-c3cccc(O)c3)c3c(N)ncnc32)cc2cccc(C)c2c1=O | < 100 | < 100 | – | –
10 | CCc1ccccc1-n1c(Cn2nc(Br)c3c(N)ncnc32)nc2scc(C)c2c1=O | < 100 | < 100 | – | –
11 | CC(=O)Nc1nc2ccc(-c3nn(Cc4cc5cccc(C)c5c(=O)n4C)c4ncnc(N)c34)cc2s1 | – | < 100 | < 100 | –
12 | Cc1cccc2cc(Cn3nc(I)c4c(N)ncnc43)n(C3CC3)c(=O)c12 | < 100 | < 100 | – | –
13 | Cc1ccccc1-n1c(Cn2nc(-c3ccc4nc(N)ncc4c3)c3c(N)ncnc32)cc2cccc(C)c2c1=O | < 100 | < 100 | < 100 | –
14 | Cc1ccccc1-n1c(Cn2nc(-c3ccc4nc(N)sc4c3)c3c(N)ncnc32)cc2cccc(C)c2c1=O | < 100 | < 100 | – | –
15 | CCc1ccccc1-n1c(Cn2nc(I)c3c(N)ncnc32)cc2cccc(C)c2c1=O | < 100 | < 100 | – | –
16 | Cc1ccccc1-n1c(Cn2nc(C=C3SC(=O)NC3=O)c3c(N)ncnc32)cc2cccc(C)c2c1=O | < 100 | < 100 | – | –
17 | CCc1ccccc1-n1c(Cn2nc(-c3cc(O)cc(F)c3)c3c(N)ncnc32)nc2scc(C)c2c1=O | < 100 | < 100 | – | –
18 | CC(=O)Nc1nc2ccc(-c3nn(Cc4cc5cccc(F)c5c(=O)n4C(C)C)c4ncnc(N)c34)cc2s1 | – | < 100 | < 100 | –
19 | Nc1ncnc2c1c(-c1cc(O)cc(F)c1)nn2Cc1cc2cccc(Cl)c2c(=O)n1C1CC1 | < 100 | < 100 | < 100 | < 100
20 | CCc1ccccc1-n1c(Cn2nc(-c3cc(O)cc(F)c3)c3c(N)ncnc32)cc2cccc(C)c2c1=O | < 100 | < 100 | – | –
21 | CC(=O)Nc1nc2ccc(-c3nn(Cc4cc5cccc(C)c5c(=O)n4-c4ccccc4)c4ncnc(N)c34)cc2s1 | < 100 | < 100 | – | –
22 | COc1ccccc1-n1c(Cn2nc(-c3cc(O)cc(F)c3)c3c(N)ncnc32)cc2cccc(C)c2c1=O | < 100 | < 100 | – | –
23 | CCc1ccccc1-n1c(Cn2nc(-c3cccc(O)c3)c3c(N)ncnc32)nc2scc(C)c2c1=O | < 100 | < 100 | – | –
24 | Cc1cccc2cc(Cn3nc(-c4cccc(O)c4)c4c(N)ncnc43)n(-c3ccccc3O)c(=O)c12 | < 100 | < 100 | – | –
25 | Cc1ccccc1-n1c(Cn2nc(-c3cc(O)cc(F)c3)c3c(N)ncnc32)cc2ccccc2c1=O | < 100 | < 100 | – | –
26 | Cc1cccc2cc(Cn3nc(-c4ccc(Cl)c(O)c4)c4c(N)ncnc43)n(-c3ccccc3F)c(=O)c12 | < 100 | < 100 | – | –

Row | SMILES | IC50 [1] [nM] | IC50 [2] [nM] | IC50 [3] [nM] | IC50 [4] [nM]
27 | Cc1ccccc1-n1c(Cn2nc(-c3ccc4ncnc(N)c4c3)c3c(N)ncnc32)cc2cccc(C)c2c1=O | < 100 | < 100 | – | –
28 | Cc1cccc2cc(Cn3nc(-c4cc(O)cc(F)c4)c4c(N)ncnc43)n(-c3ccccc3O)c(=O)c12 | < 100 | < 100 | – | –
29 | Cc1ccccc1-n1c(Cn2nc(Br)c3c(N)ncnc32)cc2cccc(C)c2c1=O | < 100 | < 100 | – | –
30 | Cc1cccnc1-n1c(Cn2nc(-c3ccc(Cl)c(O)c3)c3c(N)ncnc32)cc2cccc(C)c2c1=O | < 100 | < 100 | – | –
31 | Cc1ccccc1-n1c(Cn2nc(-c3ccc(O)c(Cl)c3)c3c(N)ncnc32)nc2scc(C)c2c1=O | < 100 | < 100 | – | –
32 | Cc1cccc2cc(Cn3nc(-c4ccc(F)c(O)c4)c4c(N)ncnc43)n(C3CCCC3)c(=O)c12 | < 100 | < 100 | – | –
33 | Cc1cccnc1-n1c(Cn2nc(-c3ccc(F)c(O)c3)c3c(N)ncnc32)cc2cccc(C)c2c1=O | < 100 | < 100 | – | –
34 | Cc1cccc2cc(Cn3nc(I)c4c(N)ncnc43)n(-c3ccccc3C(C)C)c(=O)c12 | < 100 | < 100 | – | –
35 | Cc1cccc2cc(Cn3nc(C=C4SC(=O)NC4=O)c4c(N)ncnc43)n(-c3ccccc3F)c(=O)c12 | < 100 | < 100 | – | –
36 | CC(=O)Nc1nc2ccc(-c3nn(Cc4cc5cccc(C)c5c(=O)n4C(C)C)c4ncnc(N)c34)cc2s1 | – | < 100 | < 100 | –
37 | CC(=O)Nc1nc2ccc(-c3nn(Cc4cc5cccc(Cl)c5c(=O)n4C4CC4)c4ncnc(N)c34)cc2s1 | – | < 100 | < 100 | < 100
38 | Cc1csc2nc(Cn3nc(C#C[C@@H](C)O)c4c(N)ncnc43)n(-c3ccccc3F)c(=O)c12 | < 100 | < 100 | – | –
39 | Cc1ccccc1-n1c(Cn2nc(C=CC(N)=O)c3c(N)ncnc32)cc2cccc(C)c2c1=O | < 100 | < 100 | – | –
40 | Cc1ccccc1-n1c(Cn2nc(C3=CCC4OC(N)=NC4=C3)c3c(N)ncnc32)cc2cccc(C)c2c1=O (stereo not drawn) | < 100 | < 100 | – | –
41 | CC(=O)Nc1nc2ccc(-c3nn(Cc4cc5cccc(C)c5c(=O)n4C4CCC4)c4ncnc(N)c34)cc2s1 | – | < 100 | < 100 | –
42 | Cc1ccccc1-n1c(Cn2nc(-c3ccc(Cl)c(O)c3)c3c(N)ncnc32)cc2ccccc2c1=O | < 100 | < 100 | – | –
43 | Cc1ccccc1-n1c(Cn2nc(-c3ccc(F)c(O)c3)c3c(N)ncnc32)cc2ccccc2c1=O | < 100 | < 100 | – | –
44 | Cc1ccccc1-n1c(Cn2nc(-c3ccc(F)c(O)c3)c3c(N)ncnc32)cc2cccc(F)c2c1=O | < 100 | < 100 | – | –
45 | CC(=O)Nc1nc2ccc(-c3nn(Cc4cc5cccc(Cl)c5c(=O)n4C(C)C)c4ncnc(N)c34)cc2s1 | – | < 100 | < 100 | < 100
46 | Cc1cccc2cc(C(C)Nc3ncnc4[nH]cnc34)n(-c3ccccc3F)c(=O)c12 (stereo not drawn) | < 100 | < 100 | – | –
47 | CC(=O)Nc1nc2ccc(-c3nn(Cc4cc5cccc(C)c5c(=O)n4C4CC4)c4ncnc(N)c34)cc2s1 | – | < 100 | < 100 | < 100
48 | CC(=O)Nc1nc2ccc(-c3nn(Cc4cc5ccccc5c(=O)n4-c4ccccc4C)c4ncnc(N)c34)cc2s1 | < 100 | < 100 | – | –
49 | Cc1csc2nc(Cn3nc(Br)c4c(N)ncnc43)n(-c3ccccc3C(C)C)c(=O)c12 | < 100 | < 100 | – | –
50 | Cc1ccccc1-n1c(Cn2nc(-c3cc(O)cc(F)c3)c3c(N)ncnc32)nc2scc(C)c2c1=O | < 100 | < 100 | – | –
51 | Cc1ccccc1-n1c(Cn2nc(-c3cccc(O)c3)c3c(N)ncnc32)nc2scc(C)c2c1=O | < 100 | < 100 | – | –
52 | CCn1c(Cn2nc(-c3ccc4nc(NC(C)=O)sc4c3)c3c(N)ncnc32)cc2cccc(C)c2c1=O | < 100 | < 100 | < 100 | –
